Among the data in patent publication US20240083861A1, “HSD17B13 INHIBITORS AND USES THEREOF” (FL2022-001, Inc., priority 2020, published 2024) are IC50 and inhibition values, retold here.

For the assay, the target named is T1, Recombinant human HSD17B13 enzyme (Homo sapiens, UniProt Q7Z5P4).
T1 sequence (Q7Z5P4 20-300): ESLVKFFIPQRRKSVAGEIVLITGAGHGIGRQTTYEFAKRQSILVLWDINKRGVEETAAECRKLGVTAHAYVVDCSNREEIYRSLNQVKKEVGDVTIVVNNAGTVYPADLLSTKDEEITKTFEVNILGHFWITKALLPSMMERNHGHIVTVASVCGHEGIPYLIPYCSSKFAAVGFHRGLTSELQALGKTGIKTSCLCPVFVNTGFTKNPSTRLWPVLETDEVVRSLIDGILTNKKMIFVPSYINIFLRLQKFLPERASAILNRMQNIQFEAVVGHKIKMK
The assay is described as follows: HSD17b13 NAD(P)H-Glo biochemical assay. The following applies: for IC50: 50 uM estradiol, 1 mM NAD+, NAD(P)H-Glo luminescence, read-out: HSD17β13 IC50. The method, boiled down: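 Luminescent NAD(P)H-Glo read-out, taken after 1 hour at RT, measured cofactor reduction. Substrate and cofactor were estradiol at 50 uM and NAD+ at 1 mM final, reacted with the recombinant human enzyme for 3 hours at 37° C in 20 mM Tris pH7.4, 0.002% Tween-20, 0.02% BSA. Compound was pre-incubated with enzyme for 20 minutes at RT.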

The term IC50 denotes the concentration that inhibits the measured activity by half. Regarding `CS(=O)(=O)N1CCN(c2cc3[nH]nc(-c4cc(C(F)(F)F)cc(O)c4F)c3cn2)CC1` [Compound 11.02, 2-Fluoro-3-(6-(4-(methylsulfonyl)piperazin-1-yl)-1H-pyrazolo[4,3-c]pyridin-3-yl)-5-(trifluoromethyl)phenol], the IC50 lay within 0.1 to 1 µM. As to `Oc1c(F)c(-c2n[nH]c3cc(N4CCOCC45CC5)ncc23)cc(C(F)(F)F)c1F` [Compound 11.03, 3-(6-(7-Oxa-4-azaspiro[2.5]octan-4-yl)-1H-pyrazolo[4,3-c]pyridin-3-yl)-2,6-difluoro-5-(trifluoromethyl)phenol], the IC50 is under 0.1 µM. Consider `CN(c1cc2[nH]nc(-c3cc(C(F)(F)F)c(F)c(O)c3F)c2cn1)C1CCOCC1` [Compound 11.04, 2,6-Difluoro-3-(6-(methyl(tetrahydro-2H-pyran-4-yl)amino)-1H-pyrazolo[4,3-c]pyridin-3-yl)-5-(trifluoromethyl)phenol], for which the concentration for half-maximal inhibition (IC50) was under 0.1 µM. In the case of `Cn1nc(-c2cc(C(F)(F)F)c(F)c(O)c2F)c2ncc(N3CCN(S(C)(=O)=O)CC3)nc21` [Compound 12, 2,6-Difluoro-3-(1-methyl-6-(4-(methylsulfonyl)piperazin-1-yl)-1H-pyrazolo[3,4-b]pyrazin-3-yl)-5-(trifluoromethyl)phenol], the IC50 was in the range of 0.1 to 1 µM. In the case of `Cn1nc(-c2cc(C(F)(F)F)c(F)c(O)c2F)c2cnc(N3CCN(S(C)(=O)=O)CC3)nc21` [Compound 12.01, 2,6-Difluoro-3-(1-methyl-6-(4-(methylsulfonyl)piperazin-1-yl)-1H-pyrazolo[3,4-d]pyrimidin-3-yl)-5-(trifluoromethyl)phenol], the half-inhibitory concentration (IC50) is under 0.1 µM. Take `Cn1nc(-c2cc(C(F)(F)F)c(F)c(O)c2F)c2ccc(N3CCN(S(C)(=O)=O)CC3)nc21` [Compound 12.02, 2,6-Difluoro-3-(1-methyl-6-(4-(methylsulfonyl)piperazin-1-yl)-1H-pyrazolo[3,4-b]pyridin-3-yl)-5-(trifluoromethyl)phenol]: the IC50 is under 0.1 µM. Still for that read-out and setting: under `Cn1nc(-c2cc(C(F)(F)F)c(F)c(O)c2F)c2cnc(N3CCOCC34CC4)nc21` [Compound 12.03, 2,6-Difluoro-3-(1-methyl-6-(7-oxa-4-azaspiro[2.5]octan-4-yl)-1H-pyrazolo[3,4-d]pyrimidin-3-yl)-5-(trifluoromethyl)phenol] stands under 0.1 µM; under `CN(c1ncc2c(-c3cc(C(F)(F)F)c(F)c(O)c3F)nn(C)c2n1)C1CC1` [Compound 12.04, 3-(6-(Cyclopropyl(methyl)amino)-1-methyl-1H-pyrazolo[3,4-d]pyrimidin-3-yl)-2,6-difluoro-5-(trifluoromethyl)phenol], under 0.1 µM; under `Cn1nc(-c2cc(C(F)(F)F)c(F)c(O)c2F)c2cnc(N3CCN(S(C)(=O)=O)CC3)cc21` [Compound 12.05, 2,6-Difluoro-3-(1-methyl-6-(4-(methylsulfonyl)piperazin-1-yl)-1H-pyrazolo[4,3-c]pyridin-3-yl)-5-(trifluoromethyl)phenol], under 0.1 µM. The same measure, in the same setting: under `Cn1nc(-c2ccc(Cl)c(O)c2F)c2cnc(N3CCN(S(C)(=O)=O)C4(CC4)C3)nc21` [Compound 12.06, 6-Chloro-2-fluoro-3-(1-methyl-6-(4-(methylsulfonyl)-4,7-diazaspiro[2.5]octan-7-yl)-1H-pyrazolo[3,4-d]pyrimidin-3-yl)phenol] stands 0.1 to 1 µM; under `Cn1nc(-c2ccc(Cl)c(O)c2Cl)c2cnc(N3CCN(S(C)(=O)=O)C4(CC4)C3)nc21` [Compound 12.07, 2,6-Dichloro-3-(1-methyl-6-(4-(methylsulfonyl)-4,7-diazaspiro[2.5]octan-7-yl)-1H-pyrazolo[3,4-d]pyrimidin-3-yl)phenol], 1 to 30 µM. As to `CN(c1ncc2c(-c3cc(C(F)(F)F)c(F)c(O)c3F)nn(C)c2c1Cl)C1CCOCC1` [Compound 12.08, 3-(7-Chloro-1-methyl-6-(methyl(tetrahydro-2H-pyran-4-yl)amino)-1H-pyrazolo[4,3-c]pyridin-3-yl)-2,6-difluoro-5-(trifluoromethyl)phenol], the IC50 is under 0.1 µM. On to `Cn1nc(-c2cc(O)cc3ccccc23)c2cnc(N3CCN(S(C)(=O)=O)C4(CC4)C3)nc21` [Compound 12.09, 4-(1-Methyl-6-(4-(methylsulfonyl)-4,7-diazaspiro[2.5]octan-7-yl)-1H-pyrazolo[3,4-d]pyrimidin-3-yl)naphthalen-2-ol], for which the IC50 is 1 to 30 µM. By inhibition is commonly meant the change of the read-out against control, counted positive when it falls. Consider `Cn1nc(-c2cccc(O)c2)c2cnc(N3CCN(S(C)(=O)=O)C4(CC4)C3)nc21` [Compound 12.10, 3-(1-Methyl-6-(4-(methylsulfonyl)-4,7-diazaspiro[2.5]octan-7-yl)-1H-pyrazolo[3,4-d]pyrimidin-3-yl)phenol], for which the inhibition at 10 µM (at 10 uM compound, read-out: HSD17β13 % inhibition at 10 uM) is under 20%.

As for `CS(=O)(=O)N1CCC(c2cc3[nH]nc(-c4cc(C(F)(F)F)cc(O)c4F)c3cn2)CC1` [Compound 13, 2-Fluoro-3-(6-(1-(methylsulfonyl)piperidin-4-yl)-1H-pyrazolo[4,3-c]pyridin-3-yl)-5-(trifluoromethyl)phenol], the concentration for half-maximal inhibition (IC50) was 0.1 to 1 µM. In the case of `Cn1nc(-c2cc(C(F)(F)F)cc(O)c2F)c2cnc(C3CCN(S(C)(=O)=O)CC3)cc21` [Compound 13.01, 2-Fluoro-3-(1-methyl-6-(1-(methylsulfonyl)piperidin-4-yl)-1H-pyrazolo[4,3-c]pyridin-3-yl)-5-(trifluoromethyl)phenol], the IC50 is 0.1 to 1 µM. For the compound `CS(=O)(=O)N1CC=C(c2ccc3c(-c4cc(O)c(F)c(C(F)(F)F)c4)n[nH]c3c2)CC1` [Compound 14, 2-Fluoro-5-(6-(1-(methylsulfonyl)-1,2,3,6-tetrahydropyridin-4-yl)-1H-indazol-3-yl)-3-(trifluoromethyl)phenol], the IC50 was in the range of 0.1 to 1 µM.

For the compound `Cn1nc(-c2cc(O)c(F)c(C(F)(F)F)c2)c2ccc(C3=CCN(S(C)(=O)=O)CC3)cc21` [Compound 14.01, 2-Fluoro-5-(1-methyl-6-(1-(methylsulfonyl)-1,2,3,6-tetrahydropyridin-4-y1)-1H-indazol-3-y1)-3-(trifluoromethyl)phenol], the IC50 was under 0.1 µM. Take `Cc1cc(-c2n[nH]c3cc(C4=CCN(S(C)(=O)=O)CC4)ccc23)c(F)c(O)c1F` [Compound 14.02, 2,6-Difluoro-3-methyl-5-(6-(1-(methylsulfonyl)-1,2,3,6-tetrahydropyridin-4-y1)-1H-indazol-3-y1)phenol]: the IC50 is under 0.1 µM. The same measure, in the same setting: under `CS(=O)(=O)N1CC=C(c2cc3[nH]nc(-c4cc(O)c(F)c(C(F)(F)F)c4)c3cn2)CC1` [Compound 14.03, 2-Fluoro-5-(6-(1-(methylsulfony1)-1,2,3,6-tetrahydropyridin-4-yl)-1H-pyrazolo[4,3-c]pyridin-3-yl)-3-(trifluoromethyl)phenol] stands 0.1 to 1 µM; under `CS(=O)(=O)N1CCC(c2ccc3c(-c4cc(O)c(F)c(C(F)(F)F)c4)n[nH]c3c2)CC1` [Compound 15, 2-Fluoro-5-(6-(1-(methylsulfonyl)piperidin-4-yl)-1H-indazol-3-yl)-3-(trifluoromethyl)phenol], 0.1 to 1 µM. For `Cc1cc(-c2n[nH]c3cc(C4CCN(S(C)(=O)=O)CC4)ccc23)c(F)c(O)c1F` [Compound 15.01, 2,6-Difluoro-3-methyl-5-(6-(1-(methylsulfony1)piperidin-4-y1)-1H-indazol-3-yl)phenol], the IC50 is under 0.1 µM.

Regarding `Cn1nc(-c2cc(O)c(F)c(C(F)(F)F)c2)c2ccc(C3CCN(S(C)(=O)=O)CC3)cc21` [Compound 15.02, 2-Fluoro-5-(1-methyl-6-(1-(methylsulfonyl)piperidin-4-y1)-1H-indazol-3-yl)-3-(trifluoromethyl)phenol], the IC50 fell in the range of 0.1 to 1 µM. Turning to `Cn1nc(-c2cc(C(F)(F)F)c(F)c(O)c2F)c2cnc(C3CCN(S(C)(=O)=O)CC3)cc21` [Compound 15.03, 2,6-Difluoro-3-(1-methyl-6-(1-(methylsulfony1)piperidin-4-y1)-1H-pyrazolo[4,3-c]pyridin-3-y1)-5-(trifluoromethyl)phenol], the IC50 lay within 0.1 to 1 µM. As to `Cn1nc(-c2cc(C(F)(F)F)c(F)c(O)c2F)c2cnc(C3CCN(S(C)(=O)=O)CC3)nc21` [Compound 15.04, 2,6-Difluoro-3-(1-methyl-6-(1-(methylsulfony1)piperidin-4-y1)-1H-pyrazolo[3,4-d]pyrimidin-3-yl)-5-(trifluoromethyl)phenol], the IC50 is under 0.1 µM. Still for that read-out and setting: under `Oc1cc(-c2n[nH]c3cc(-c4ccc(O)c(Cl)c4)ccc23)ccc1F` [Compound 16, 2-Chloro-4-(3-(4-fluoro-3-hydroxyphenyl)-1H-indazol-6-yl)phenol] stands 0.1 to 1 µM; under `Cn1nc(-c2ccc(F)c(O)c2)c2ccc(-c3ccc(O)c(Cl)c3)cc21` [Compound 17, 2-Chloro-4-(3-(4-fluoro-3-hydroxyphenyl)-1-methyl-1H-indazol-6-yl)phenol], 0.1 to 1 µM; under `Cn1nc(-c2cc(C(F)(F)F)c(F)c(O)c2F)c2cnc(N3CCOC4(CCC4)C3)nc21` [Compound 18, 2,6-Difluoro-3-(1-methyl-6-(5-oxa-8-azaspiro[3.5]nonan-8-yl)-1H-pyrazolo[3,4-d]pyrimidin-3-yl)-5-(trifluoromethyl)phenol], under 0.1 µM. Consider `Cn1nc(-c2cc(C(F)(F)F)c(F)c(O)c2F)c2cnc(N3CCOCC3CO)nc21` (centres unmarked) [Compound 18.01, 2,6-Difluoro-3-(6-(3-(hydroxymethyl)morpholino)-1-methyl-1H-pyrazolo[3,4-d]pyrimidin-3-y1)-5-(trifluoromethyl)phenol], for which the concentration for half-maximal inhibition (IC50) was under 0.1 µM.
